Where two headings read alike, the source gives them in different places.
Columns and labels:
[1] = test system: symmetric di-methyl arginine in Z-138 cells; test: Z-138 Methylation Assay (In Cell Western for symmetric di-methyl arginine and DNA content); assay type: cell-based; conditions: Homo sapiens, read-out: ICW EC50
In short: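 In-cell western: symmetric di-methyl arginine signal ratioed to DRAQ5 DNA content after 96 h compound exposure of Z-138 cells seeded at 50,000 cells/mL.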

Z-138 cell line = test: Z-138 Proliferation Assay (Cell Titer Glo, 5 days); assay type: cell-based; conditions: Homo sapiens, read-out: Proliferation EC50
In short: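 Viability via CellTiter-Glo luminescence (ATP) after 5-day incubation at 37 °C, 5% CO2. Compounds tested in triplicate, nine 3-fold steps, highest final concentration 20 μM in 0.2% DMSO; 50% inhibitory concentration by 4-parameter fit of normalized curves.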

Structure (SMILES)	EC50 [1] [nM]	EC50 (Z-138 cell line; 120 h, Z-138 cells, 5 days) [nM]	EC50 (Z-138 cell line; Z-138, 120 h) [nM]
O=C(NC[C@H](O)CN1CCc2ccccc2C1)c1ccnc(NCC2CCCNC2)c1 (some centres unmarked) [Compound 236]	101 to 1000	1000 to 10000	
O=C(NC[C@H](O)CN1CCc2ccccc2C1)c1ccnc(NCC2CCCCN2)c1 (some centres unmarked) [Compound 237]	< 100	1000 to 10000	
O=C(NC[C@H](O)CN1CCc2ccccc2C1)c1ccnc(NCC2CNCCO2)c1 (some centres unmarked) [Compound 238]	101 to 1000	10000 to 50000	
CN1CCC(Nc2cccc(C(=O)NC[C@H](O)CN3CCc4ccccc4C3)c2)CC1 [Compound 239]	< 100	1000 to 10000	
O=C(NC[C@H](O)CN1CCc2ccccc2C1)c1c[nH]c2ccccc12 [Compound 240]	101 to 1000	> 20000	
O=C(NC[C@H](O)CN1CCc2ccccc2C1)c1cccc2[nH]cnc12 [Compound 241]	101 to 1000	1000 to 10000	
O=C(NC[C@H](O)CN1CCc2ccccc2C1)c1n[nH]c2ccccc12 [Compound 242]	101 to 1000	1000 to 10000	
O=C(NC[C@H](O)CN1CCc2ccccc2C1)c1ccc2c(c1)CCO2 [Compound 243]	101 to 1000	1000 to 10000	
O=C(NC[C@H](O)CN1CCc2ccccc2C1)c1ccc2c(c1)OCO2 [Compound 244]	101 to 1000	1000 to 10000	
O=C(NC[C@H](O)CN1CCc2ccccc2C1)c1cnc2ccccc2n1 [Compound 245]	101 to 1000	10000 to 50000	
Cn1cc(C(=O)NC[C@H](O)CN2CCc3ccccc3C2)c2ccccc21 [Compound 246]	101 to 1000		1000 to 10000
O=C(NC[C@H](O)CN1CCc2ccccc2C1)c1ccc2c(c1)CCCC2 [Compound 247]	101 to 1000	1000 to 10000	
O=C(NC[C@H](O)CN1CCc2ccccc2C1)c1csc2ccccc12 [Compound 248]	101 to 1000	1000 to 10000	
O=C(NC[C@H](O)CN1CCc2ccccc2C1)c1cccc2c1OCCO2 [Compound 249]	101 to 1000	10000 to 50000	
COc1ccc2oc(C(=O)NC[C@H](O)CN3CCc4ccccc4C3)cc2c1 [Compound 250]	< 100	1000 to 10000	
COc1ccc2cc(C(=O)NC[C@H](O)CN3CCc4ccccc4C3)ccc2c1 [Compound 251]	< 100	1000 to 10000	
CC(=O)N(C)CCN1CCN(Cc2cccc(C(=O)NCC(O)CN3CCc4ccccc4C3)c2)CC1 (centres unmarked) [Compound 252]	101 to 1000	1000 to 10000	
CN1CCN(Cc2cccc(C(=O)NCC(O)CN3CCc4ccccc4C3)c2)CC1CO (centres unmarked) [Compound 253]	101 to 1000	1000 to 10000	
CN1CCC(Nc2cc(C(=O)NC[C@H](O)CN3CCc4ccccc4C3)ccn2)C1 (some centres unmarked) [Compound 255]	< 100	1000 to 10000	
O=C(NC[C@H](O)CN1CCc2ccccc2C1)c1cc(OC2CCOCC2)ncn1 [Compound 256]	< 100	1000 to 10000	
CS(=O)(=O)N1CCC(Nc2cc(C(=O)NC[C@H](O)CN3CCc4ccccc4C3)ncn2)C1 (some centres unmarked) [Compound 257]	< 100	1000 to 10000	
O=C(NC[C@H](O)CN1CCc2ccccc2C1)c1cc(OC2CCNCC2)ncn1 [Compound 258]	101 to 1000	10000 to 50000	

Structure (SMILES)	EC50 [1] [nM]	EC50 (Z-138 cell line; 120 h, Z-138 cells, 5 days) [nM]	EC50 (Z-138 cell line; Z-138, 120 h) [nM]
O=C(NC[C@H](O)CN1CCc2ccccc2C1)c1cncc(NC2CCNC2)c1 (some centres unmarked) [Compound 259]	101 to 1000	> 20000	
O=C(NC[C@H](O)CN1CCc2ccccc2C1)c1cncc(OC2CCNCC2)c1 [Compound 260]	101 to 1000	> 20000	
CN(c1cc(C(=O)NC[C@H](O)CN2CCc3ccccc3C2)ncn1)C1CCOCC1 [Compound 261]	< 100	1000 to 10000	
CN(CCNc1cc(C(=O)NC[C@H](O)CN2CCc3ccccc3C2)ccn1)S(C)(=O)=O [Compound 262]	< 100	101 to 1000	
CN(CCN(C)S(C)(=O)=O)c1cc(C(=O)NC[C@H](O)CN2CCc3ccccc3C2)ccn1 [Compound 263]	< 100	1000 to 10000	
CN1CCCC(CNc2cc(C(=O)NC[C@H](O)CN3CCc4ccccc4C3)ccn2)C1 (some centres unmarked) [Compound 264]	< 100	1000 to 10000	
CN1CCOC(CNc2cc(C(=O)NC[C@H](O)CN3CCc4ccccc4C3)ccn2)C1 (some centres unmarked) [Compound 265]	101 to 1000	1000 to 10000	
CC(=O)N1CC[C@H](Nc2cccc(C(=O)NC[C@H](O)CN3CCc4ccccc4C3)c2)C1 [Compound 266]	< 100	101 to 1000	
CS(=O)(=O)N1CC[C@@H](Nc2cccc(C(=O)NC[C@H](O)CN3CCc4ccccc4C3)c2)C1 [Compound 267]	< 100	101 to 1000	
CS(=O)(=O)N1CC[C@H](Nc2cccc(C(=O)NC[C@H](O)CN3CCc4ccccc4C3)c2)C1 [Compound 268]	< 100	101 to 1000	
O=C(NC[C@H](O)CN1CCc2ccccc2C1)c1cc2ccccc2[nH]1 [Compound 269]	< 100	1000 to 10000	
O=C(NC[C@H](O)CN1CCc2ccccc2C1)c1cc2ccccc2o1 [Compound 271]	101 to 1000	1000 to 10000	
O=C(NC[C@H](O)CN1CCc2ccccc2C1)c1nccc2ccccc12 [Compound 272]	< 100	1000 to 10000	
O=C(NC[C@H](O)CN1CCc2ccccc2C1)c1ccc2ncsc2c1 [Compound 273]	101 to 1000	1000 to 10000	
O=C(NC[C@H](O)CN1CCc2ccccc2C1)c1ccc2c(c1)OCCO2 [Compound 274]	101 to 1000	1000 to 10000	
Cc1cc2ncc(C(=O)NC[C@H](O)CN3CCc4ccccc4C3)c(C)n2n1 [Compound 275]	101 to 1000	1000 to 10000	
O=C(NC[C@H](O)CN1CCc2ccccc2C1)c1cc2cccc(Cl)c2[nH]1 [Compound 276]	101 to 1000	1000 to 10000	
CN(CCOc1cccc(C(=O)NCC(O)CN2CCc3ccccc3C2)c1)CC(N)=O (centres unmarked) [Compound 277]	< 100	1000 to 10000	
CS(=O)(=O)N1CC(Nc2cc(C(=O)NC[C@H](O)CN3CCc4ccccc4C3)ccn2)C1 [Compound 278]	< 100	101 to 1000	
CC(=O)N1CC(Nc2cc(C(=O)NC[C@H](O)CN3CCc4ccccc4C3)ccn2)C1 [Compound 279]	< 100	< 100	
O=C(NC[C@H](O)CN1CCc2ccccc2C1)c1cc(NC2CNC2)ncn1 [Compound 280]	< 100	101 to 1000	
CN1CC(Nc2cc(C(=O)NC[C@H](O)CN3CCc4ccccc4C3)ncn2)C1 [Compound 281]	101 to 1000	10000 to 50000	

Structure (SMILES)	EC50 [1] [nM]	EC50 (Z-138 cell line; 120 h, Z-138 cells, 5 days) [nM]	EC50 (Z-138 cell line; Z-138, 120 h) [nM]
O=C(NC[C@H](O)CN1CCc2ccccc2C1)c1cc(NC2CN(CC(F)(F)F)C2)ncn1 [Compound 282]	< 100	1000 to 10000	
CS(=O)(=O)N1CC(Nc2cc(C(=O)NC[C@H](O)CN3CCc4ccccc4C3)ncn2)C1 [Compound 283]	< 100	101 to 1000	
CC(=O)N1CC(Nc2cc(C(=O)NC[C@H](O)CN3CCc4ccccc4C3)ncn2)C1 [Compound 284, (S)-6-((1-acetylazetidin-3-yl)amino)-N-(3-(3,4-dihydroisoquinolin-2(1H)-yl)-2-hydroxypropyl)pyrimidine-4-carboxamide]	< 100	< 100	
O=C(NC[C@H](O)CN1CCc2ccccc2C1)c1cc(OC2CCN(CC(F)(F)F)CC2)ncn1 [Compound 285]	101 to 1000	1000 to 10000	
CS(=O)(=O)N1CCC(Oc2cc(C(=O)NC[C@H](O)CN3CCc4ccccc4C3)ncn2)CC1 [Compound 286]	< 100	1000 to 10000	
CC(=O)N1CCC(Oc2cc(C(=O)NC[C@H](O)CN3CCc4ccccc4C3)ncn2)CC1 [Compound 287]	< 100	101 to 1000	
CN1CCC(Oc2cncc(C(=O)NC[C@H](O)CN3CCc4ccccc4C3)c2)CC1 [Compound 288]	< 100	< 100	
CS(=O)(=O)N1CCC(Oc2cncc(C(=O)NC[C@H](O)CN3CCc4ccccc4C3)c2)CC1 [Compound 290]	101 to 1000	10000 to 50000	
CC(=O)N(C)CCN(C)c1cc(C(=O)NC[C@H](O)CN2CCc3ccccc3C2)ccn1 [Compound 291]	< 100	1000 to 10000	
CN1CCC(CNc2cc(C(=O)NC[C@H](O)CN3CCc4ccccc4C3)ccn2)CC1 [Compound 292]	< 100	101 to 1000	
CC(=O)N1CC[C@@H](Nc2cccc(C(=O)NC[C@H](O)CN3CCc4ccccc4C3)c2)C1 [Compound 293]	< 100	< 100	
O=C(NC[C@H](O)CN1CCc2ccccc2C1)c1ccc2[nH]cnc2c1 [Compound 294]	101 to 1000	1000 to 10000	
O=C(NC[C@H](O)CN1CCc2ccccc2C1)c1cc2c(F)cccc2[nH]1 [Compound 296]	< 100	101 to 1000	
CS(=O)(=O)N1CCC(Nc2cc(C(=O)NC[C@H](O)CN3CCc4ccccc4C3)ncn2)CC1 [Compound 297]	< 100	< 100	
O=C(NC[C@H](O)CN1CCc2ccccc2C1)c1cncc(NC2CCOCC2)c1 [Compound 298]	< 100	101 to 1000	
O=C(NC[C@H](O)CN1CCc2ccccc2C1)c1cncc(NC2COC2)c1 [Compound 299]	101 to 1000	10000 to 50000	
O=C(NC[C@H](O)CN1CCc2ccccc2C1)c1cncc(NC2CCN(CC(F)(F)F)CC2)c1 [Compound 300]	< 100	1000 to 10000	
CS(=O)(=O)N1CCC(Nc2cncc(C(=O)NC[C@H](O)CN3CCc4ccccc4C3)c2)CC1 [Compound 301]	< 100	101 to 1000	
CC(=O)N1CCC(Nc2cncc(C(=O)NC[C@H](O)CN3CCc4ccccc4C3)c2)CC1 [Compound 302]	< 100	< 100	
O=C(NC[C@H](O)CN1CCc2ccccc2C1)c1ccnc(NC2CCOC2)c1 (some centres unmarked) [Compound 306]	< 100	< 100	
